# Results as given in patent US20070082939A1, “Methods and compositions for the treatment of neuropathies and related disorders” (priority 2005, published 2007).
# “Also recorded” adds a separate entry of the source. Structures can show the parent of a compound that is named as a salt.
# Columns and labels:
# [1] = system: acute inflammatory pain produced by injection of yeast extract into the rat paw; details: cited from earlier work
# [2] = system: nociceptive pain following dental surgery; details: humans; cited from earlier work
# [3] = system: spinal nerve ligation (Chung) model of neuropathic pain; assay: Spinal nerve ligation (Chung) model, tactile stimulation with electronic Von Frey probe; assay type: in vivo, rats; details: for effect on mechanical hyperalgesia compared with morphine / mechanical hyperalgesia: force required to induce paw withdrawal, lesioned paw: lesioned paw; for effect on mechanical hyperalgesia compared with morphine: morphine 128 mg/kg p.o., near lethal dose; for mechanical hyperalgesia: force required to induce paw withdrawal, lesioned paw / pain (pressure) threshold in the non-lesioned paw: rats; for mechanical hyperalgesia: force required to induce paw withdrawal, lesioned paw: p.o. at the indicated doses 60 minutes before the test; for pain (pressure) threshold in the non-lesioned paw: p.o., non-lesioned paw (Panel B)
# Procedure: (§1) Tight ligature of spinal nerves in rats is associated with hyperalgesia, allodynia and spontaneous pain, and thereby provides an accepted model for peripheral neuropathic pain in humans. Male Sprague-Dawley rats Rj:SD (IOPS Han) weighing 218-260 g at the beginning of the procedure were anesthetized (sodium pentobarbital 40 mg/kg i.p.) and an incision at the L4-S2 level was performed to expose the left L5 and L6 spinal nerves, which were then tightly ligated (4-0 silk suture) distal to the dorsal root ganglion and prior to entrance into the sciatic nerve, as first described by Kim and Chung (Pain 50:355-363, 1992). The wound was then sutured, and the rats received an […]. injection of clamoxyl (100 mg/kg […].) and were allowed to recover. 4 weeks after surgery, when the chronic pain state was fully installed, rats were submitted consecutively to tactile and thermal stimulation of both the non-lesioned and the lesioned hindpaws.
# For tactile stimulation, the animal was placed under an inverted acrylic plastic box (18×11.5×13 cm) on a grid floor. The tip of an electronic Von Frey probe (Bioseb, model 1610) was then applied with increasing force to the non-lesioned and lesioned hindpaws and the force inducing paw-withdrawal was automatically recorded. This procedure was carried out 3 times and the mean force per paw was calculated.
# (§2) Behavioral testing was carried out 2 weeks after surgery. Prior to receiving drug treatment all animals were submitted to tactile stimulation and assigned to treatment groups matched on the basis of their pain response. 8 rats were studied per group, and the tests were performed blind.
# (§3) Bicifadine was evaluated at the indicated doses, administered p.o. 60 minutes before the test, and compared with a vehicle control group. Morphine (128 mg/kg p.o.), used as a reference substance, was administered under the same experimental conditions.
# (§4) Data were analyzed by comparing the responses of lesioned paws in the treatment groups with vehicle control group using paired and unpaired Student's t tests.
# (§5) In the instant example, another exemplary, substituted 1-aryl-3-azabicyclo[3.1.0]hexane was evaluated for its ability to alleviate symptoms associated with neuropathy in the spinal nerve ligation (Chung) model of neuropathic pain. In this study, a multiply aryl-subsituted compound as described above, 1-(3,4-dichlorophenyl)-3-azabicyclo[3.1.0]hexane was assayed according to the procedures described above in Example 1. The 1-(3,4-dichlorophenyl)-3-azabicyclo[3.1.0]hexane was administered to test animals at the indicated doses p.o. 60 minutes before the test, and compared with a vehicle control group. Data were analyzed by comparing the responses of lesioned paws in the treatment groups with vehicle control group using paired and unpaired Student's t tests, as described in Example 1.
# [4] = system: spinal nerve ligation (Chung) model of neuropathic pain; assay: Spinal nerve ligation (Chung) model, thermal stimulation (infrared radiant source); assay type: in vivo, rats; details: for effect on thermal hyperalgesia compared with morphine / thermal hyperalgesia: paw withdrawal latency, lesioned paw: lesioned paw; for effect on thermal hyperalgesia compared with morphine: morphine 128 mg/kg PO, nearly lethal dose; for thermal hyperalgesia: paw withdrawal latency, lesioned paw / response to application of heat in the non-lesioned paw: rats; for thermal hyperalgesia: paw withdrawal latency, lesioned paw: p.o. at the indicated doses 60 minutes before the test; for response to application of heat in the non-lesioned paw: p.o., non-lesioned paw (Panel B)
# Procedure: as §1
# For thermal stimulation, the apparatus (Model 7200, Ugo Basile, Italy) consists of individual acrylic plastic boxes (17×11×13 cm) placed upon an elevated glass floor. A rat was placed in the box and left free to habituate for 10 minutes. A mobile infrared radiant source (96±10 mW/cm^2) was then focused under the non-lesioned and lesioned hindpaws and the paw-withdrawal latency was automatically recorded. In order to prevent tissue damage the heat source was automatically turned off after 45 seconds.
# as §2, §3, §4, §5
# [5] = system: Streptozotocin (STZ)-induced diabetes rat model of neuropathy; assay: Streptozotocin (STZ)-induced diabetes rat model, paw pressure test; assay type: in vivo, rats; details: 60 minutes after dosing; for mechanical hyperalgesia: nociceptive threshold (paw pressure): STZ diabetic rats, oral, vs vehicle-treated diabetic rats, hydrochloride
# Procedure: Male Sprague Dawley rats Rj:SD (IOPS Han) weighing 218-260 g at the beginning of the experiment, were included in this study for the induction of diabetes. These were divided into vehicle control and streptozotocin treated groups. The rats were housed in a temperature (19.5-24.5° C.) and relative humidity (45-65%) controlled room with a 12-h light/dark cycle, with ad libitum access to filtered tap water and standard pelleted laboratory chow throughout the study.
# On day 0, diabetes was induced by intraperitoneal injection of streptozotocin (STZ; 75 mg/kg) to the rats. On day 23, to confirm the presence of diabetes in the STZ-administered rats, hyperglycemia was measured using blood glucose strips. Animals with a blood sugar level lower than […] were not used in further investigations.
# Animals found useful for inclusion in additional investigations were dosed orally with bicifadine at the indicated doses, and the nociceptive threshold tested sixty minutes later. The nociceptive threshold was evaluated using a mechanical nociceptive stimulus (paw pressure test). An increasing pressure was applied onto the hindpaw of the animal until the nociceptive response (vocalization or paw withdrawal) was reached. The pain threshold (grams of contact pressure) was measured in both hindpaws.
# Results are expressed as the nociceptive threshold (mean±SEM) in grams of contact pressure for each group, calculated from individual nociceptive thresholds (mean values of the nociceptive thresholds obtained for both hindpaws). Statistical significance between the bicifadine treated groups and the vehicle-treated diabetic group was determined by a […], using the residual variance after a one-way analysis of variance (P<0.05).
# [6] = listed as Bicfifadine, hydrochloride
# [7] = vs vehicle, listed as bicifadine HCl, hydrochloride
# [8] = morphine 128 mg/kg p.o. (nearly lethal dose), vs vehicle
structure (smiles),measurement,setting,value
COc1ccc2c3c1O[C@H]1[C@@H](O)C=C[C@H]4[C@@H](C2)N(C)CC[C@@]341 [codeine],activity in the Randall-Selitto test,[1],active
CC(=O)Oc1ccccc1C(=O)O [aspirin],activity in the Randall-Selitto test,[1],active
"Cc1ccc([C@]23CNC[C@H]2C3)cc1 (racemic) [bicifadine, (±)-1-(4-methylphenyl)-3-azabicyclo[3.1.0]hexane hydrochloride]",relief of pain following dental surgery compared with codeine and tramadol,[2],as effective as codeine and tramadol
same,"force required to induce paw withdrawal, lesioned paw","[3]; 50 mg/kg PO, 60 minutes before the test, vs vehicle treated lesioned paws",significant increase
same,effect on mechanical hyperalgesia compared with morphine,[3]; hydrochloride,more potent than morphine
same,effect on mechanical hyperalgesia compared with morphine,[3]; [6],as effective as a near lethal dose morphine
same,"mechanical hyperalgesia: force required to induce paw withdrawal, lesioned paw","[3]; vs vehicle, hydrochloride",statistically significant increase; also recorded: effectively suppressed
same,"mechanical hyperalgesia: force required to induce paw withdrawal, lesioned paw",[3]; [7],suppresses mechanical hyperalgesia
same,pain (pressure) threshold in the non-lesioned paw,[3]; hydrochloride,does not affect; also recorded: no effect
same,"paw withdrawal latency in response to a thermal stimulus, lesioned paw","[4]; all doses tested (12.5-100 mg/kg PO), vs vehicle",significant increase
same,effect on thermal hyperalgesia compared with morphine,[4]; hydrochloride,approximately equivalent
same,effect on thermal hyperalgesia compared with morphine,[4]; [6],as effective as a near lethal dose morphine
same,"thermal hyperalgesia: paw withdrawal latency, lesioned paw","[4]; vs vehicle, hydrochloride",effectively suppressed
same,"thermal hyperalgesia: paw withdrawal latency, lesioned paw",[4]; [7],suppresses thermal hyperalgesia
same,response to application of heat in the non-lesioned paw,[4]; hydrochloride,does not affect; also recorded: no effect
same,activity in the Randall-Selitto test,[1],potent and active
same,nociceptive threshold (paw pressure),"[5]; 12.5 and 25 mg/kg oral, vs vehicle treated diabetic animals",significant (P<0.05) increase
same,mechanical hyperalgesia: nociceptive threshold (paw pressure),[5],reduces mechanical hyperalgesia; also recorded: effectively alleviates neuropathy symptoms (mechanical hyperalgesia)
same,mechanical hyperalgesia: nociceptive threshold (paw pressure),[5]; listed as Bicifadine,increased the amount of pressure an animal could withstand; also recorded: restore the amount of pressure tolerated in these diabetic rats to values approaching those obtained in control animals
"CN1CC[C@]23c4c5ccc(O)c4O[C@H]2[C@@H](O)C=C[C@H]3[C@H]1C5 [morphine, reference compound]","threshold for nociceptive response, mechanical pressure, lesioned paw",[3]; [8],significant increase
same,"threshold for nociceptive response, thermal stimulus, lesioned paw",[4]; [8],significant increase
same,activity in the Randall-Selitto test,[1],active
"Clc1ccc(C23CNCC2C3)cc1Cl (centres unmarked) [1-(3,4-dichlorophenyl)-3-azabicyclo[3.1.0]hexane]","mechanical hyperalgesia: force required to induce paw withdrawal, lesioned paw",[3]; vs vehicle,potently suppressed tactile allodynia; also recorded: significant increase in the force required to induce paw withdrawal; also recorded: suppresses mechanical hyperalgesia
same,pain (pressure) threshold in the non-lesioned paw,[3],not due to debilitation of the animal; also recorded: no effect
same,"thermal hyperalgesia: paw withdrawal latency, lesioned paw",[4]; vs vehicle,dose-dependently suppressed thermal hyperalgesia; also recorded: significant increase in paw withdrawal latency; also recorded: suppresses thermal hyperalgesia
same,response to application of heat in the non-lesioned paw,[4],not due to debilitation of the animal; also recorded: no effect
